Reference: publication PMC8510344, “Bile-Acid-Appended Triazolyl Aryl Ketones: Design, Synthesis, In Vitro Anticancer Activity and Pharmacokinetics in Rats” (Molecules, 2021)

Assays:
[1] = MTT cytotoxicity assay, normal cell line HEK 293; format: cell-based; conditions: human, HEK 293 cells, HEK 293 normal cells, 48 h exposure
Description: (§1) The cytotoxicity activity of all the conjugates (6aa–6df) was evaluated in vitro by MTT assay against two different breast cancer cell lines 4T1 (murine) and MCF-7 (human) and HEK 293 (human) as normal cell line. DTX was used as positive control. Cells were grown in DMEM supplemented with 10% FBS and 1% antibiotic solution and incubated at 5% CO2 and 37 °C for 24 h. The stock solutions of all the conjugates were prepared in DMSO and diluted for further use. Briefly, 5 × 10^3 cells/well were seeded in 96-well cell culture plates and allowed to adhere for 24 h. Cell inhibition (%) was determined after 48 h exposure to the compounds at 1–25 μM concentration. After 48 h, MTT assay was performed and the yellow tetrazolium salt (MTT) was reduced in metabolically active cells to form insoluble purple formazan crystals, which were solubilized by the addition of DMSO. The optical density (OD) was recorded at 560 nm and 630 nm as reference wavelength. Percentage cell inhibition was determined by comparison with untreated cells.

[2] = system: 4T1 (mouse mammary carcinoma) cells; assay: MTT cytotoxicity assay, 4T1; format: cell-based; conditions: for IC50: 48 h; for viability at 10 µM: 48 h exposure, read-out: % Cell Viability at 10 µM 4T1
Description: as §1

[3] = system: MCF-7 (human breast adenocarcinoma) cells; assay: MTT cytotoxicity assay, MCF-7; format: cell-based; conditions: for IC50: 48 h; for viability at 10 µM: MCF7, 10 µM, 48 h exposure, read-out: % Cell Viability at 10 µM MCF-7
Description: as §1

SMILES	melting point [°C]	viability at 48 h, 10 µM [1] [%]	IC50 [2] [µM]	viability at 10 µM ([2]; Mus musculus) [%]	IC50 ([2]; Mus musculus) [µM]	IC50 [3] [µM]	viability at 10 µM ([3]; Homo sapiens) [%]	IC50 ([3]; Homo sapiens, MCF7, 48 h) [µM]
C[C@H](CCC(=O)OCc1cn(CC(=O)c2ccc(Br)cc2)nn1)C1CCC2C3CCC4C[C@H](O)CC[C@]4(C)C3C[C@H](O)[C@@]21C (stereo partly drawn) [6bf, (1-(2-(4-Bromophenyl)-2-oxoethyl)-1H-1,2,3-triazol-4-yl)methyl (4R)-4-((3R,10S,12S,13R)-3,12-dihydroxy-10,13-dimethylhexadecahydro-1H-cyclopenta[a]phenanthren-17-yl)pentanoate]	176 to 177	86.8	9.68 ± 1.59	60.9	< 19	18.3 ± 1.48	44.4	< 19
C[C@H](CCC(=O)NCc1cn(CC(=O)c2ccccc2)nn1)C1CCC2C3C(C[C@H](O)[C@@]21C)[C@@]1(C)CC[C@@H](O)CC1C[C@H]3O (stereo partly drawn) [6ca, (4R)-N-((1-(2-Oxo-2-phenylethyl)-1H-1,2,3-triazol-4-yl)methyl)-4-((3R,7R,10S,12S,13R)-3,7,12-trihydroxy-10,13-dimethylhexadecahydro-1H-cyclopenta[a]phenanthren-17-yl)pentanamide]	148 to 149	90.1	–	85.2	–	–	92.1	–
C[C@H](CCC(=O)NCc1cn(CC(=O)c2ccc(F)cc2)nn1)C1CCC2C3C(C[C@H](O)[C@@]21C)[C@@]1(C)CC[C@@H](O)CC1C[C@H]3O (stereo partly drawn) [6cd, (4R)-N-((1-(2-(4-Fluorophenyl)-2-oxoethyl)-1H-1,2,3-triazol-4-yl)methyl)-4-((3R,7R,10S,12S,13R)-3,7,12-trihydroxy-10,13-dimethylhexadecahydro-1H-cyclopenta[a]phenanthren-17-yl)pentanamide]	137 to 138	97.5	–	70.7	–	–	88.7	–
C[C@H](CCC(=O)NCc1cn(CC(=O)c2ccc(Cl)cc2)nn1)C1CCC2C3CCC4C[C@H](O)CC[C@]4(C)C3C[C@H](O)[C@@]21C (stereo partly drawn) [6de, (4R)-N-((1-(2-(4-Chlorophenyl)-2-oxoethyl)-1H-1,2,3-triazol-4-yl)methyl)-4-((3R,10S,12S,13R)-3,12-dihydroxy-10,13-dimethylhexadecahydro-1H-cyclopenta[a]phenanthren-17-yl)pentanamide]	100 to 101	90.5	–	62.9	–	–	86.8	–
C[C@H](CCC(=O)NCc1cn(CC(=O)c2ccc(Br)cc2)nn1)C1CCC2C3CCC4C[C@H](O)CC[C@]4(C)C3C[C@H](O)[C@@]21C (stereo partly drawn) [6df, (4R)-N-((1-(2-(4-Bromophenyl)-2-oxoethyl)-1H-1,2,3-triazol-4-yl)methyl)-4-((3R,10S,12S,13R)-3,12-dihydroxy-10,13-dimethylhexadecahydro-1H-cyclopenta[a]phenanthren-17-yl)pentanamide]	135 to 136	93.5	–	48.4	–	–	86.5	–
C[C@H](CCC(=O)NCc1cn(CC(=O)c2ccccc2)nn1)C1CCC2C3CCC4C[C@H](O)CC[C@]4(C)C3C[C@H](O)[C@@]21C (stereo partly drawn) [6da, (4R)-4-((3R,10S,12S,13R)-3,12-Dihydroxy-10,13-dimethylhexadecahydro-1H-cyclopenta[a]phenanthren-17-yl)-N-((1-(2-oxo-2-phenylethyl)-1H-1,2,3-triazol-4-yl)methyl)pentanamide]	135 to 136	97.9	–	99.6	–	–	91.2	–
C[C@H](CCC(=O)OCc1cn(CC(=O)c2ccc(F)cc2)nn1)C1CCC2C3C(C[C@H](O)[C@@]21C)[C@@]1(C)CC[C@@H](O)CC1C[C@H]3O (stereo partly drawn) [6ad, (1-(2-(4-Fluorophenyl)-2-oxoethyl)-1H-1,2,3-triazol-4-yl)methyl (4R)-4-((3R,7R,10S,12S,13R)-3,7,12-trihydroxy-10,13-dimethylhexadecahydro-1H-cyclopenta[a]phenanthren-17-yl)pentanoate]	152 to 153	86.8	–	47.7	–	–	66.5	–
C[C@H](CCC(=O)OCc1cn(CC(=O)c2ccccc2)nn1)C1CCC2C3C(C[C@H](O)[C@@]21C)[C@@]1(C)CC[C@@H](O)CC1C[C@H]3O (stereo partly drawn) [6aa, (1-(2-Oxo-2-phenylethyl)-1H-1,2,3-triazol-4-yl)methyl (4R)-4-((3R,7R,10S,12S,13R)-3,7,12-trihydroxy-10,13-dimethylhexadecahydro-1H-cyclopenta[a]phenanthren-17-yl)pentanoate]	108 to 109	86.1	–	74.3	–	–	77.3	–
COc1ccc(C(=O)Cn2cc(COC(=O)CC[C@@H](C)C3CCC4C5CCC6C[C@H](O)CC[C@]6(C)C5C[C@H](O)[C@@]43C)nn2)cc1 (stereo partly drawn) [6bc, (1-(2-(4-Methoxyphenyl)-2-oxoethyl)-1H-1,2,3-triazol-4-yl)methyl (4R)-4-((3R,10S,12S,13R)-3,12-dihydroxy-10,13-dimethylhexadecahydro-1H-cyclopenta[a]phenanthren-17-yl)pentanoate]	144 to 145	90.8	–	68.4	–	–	69.6	–
Cc1ccc(C(=O)Cn2cc(CNC(=O)CC[C@@H](C)C3CCC4C5C(C[C@H](O)[C@@]43C)[C@@]3(C)CC[C@@H](O)CC3C[C@H]5O)nn2)cc1 (stereo partly drawn) [6cb, (4R)-N-((1-(2-Oxo-2-(p-tolyl)ethyl)-1H-1,2,3-triazol-4-yl)methyl)-4-((3R,7R,10S,12S,13R)-3,7,12-trihydroxy-10,13-dimethylhexadecahydro-1H-cyclopenta[a]phenanthren-17-yl)pentanamide]	129 to 131	86	–	96.7	–	–	61.9	–
COc1ccc(C(=O)Cn2cc(CNC(=O)CC[C@@H](C)C3CCC4C5C(C[C@H](O)[C@@]43C)[C@@]3(C)CC[C@@H](O)CC3C[C@H]5O)nn2)cc1 (stereo partly drawn) [6cc, (4R)-N-((1-(2-(4-Methoxyphenyl)-2-oxoethyl)-1H-1,2,3-triazol-4-yl)methyl)-4-((3R,7R,10S,12S,13R)-3,7,12-trihydroxy-10,13-dimethylhexadecahydro-1H-cyclopenta[a]phenanthren-17-yl)pentanamide]	–	96.8	–	56.8	–	–	95.4	–
Cc1ccc(C(=O)Cn2cc(COC(=O)CC[C@@H](C)C3CCC4C5C(C[C@H](O)[C@@]43C)[C@@]3(C)CC[C@@H](O)CC3C[C@H]5O)nn2)cc1 (stereo partly drawn) [6ab, (1-(2-Oxo-2-(p-tolyl)ethyl)-1H-1,2,3-triazol-4-yl)methyl (4R)-4-((3R,7R,10S,12S,13R)-3,7,12-trihydroxy-10,13-dimethylhexadecahydro-1H-cyclopenta[a]phenanthren-17-yl)pentanoate]	–	87.6	–	72.9	–	–	57.4	–
CC(=O)O[C@@]12CO[C@@H]1C[C@H](O)[C@@]1(C)C(=O)[C@H](O)C3=C(C)[C@@H](OC(=O)[C@H](O)[C@@H](NC(=O)OC(C)(C)C)c4ccccc4)C[C@@](O)([C@@H](OC(=O)c4ccccc4)[C@H]21)C3(C)C [DTX, Docetaxel, reference compound]	–	–	–	56.9	13.8 ± 1.07	–	46.5	9.46 ± 0.98
